biological target: T1, interaction between BRD2 and E3 ligase DCAF16 (Homo sapiens, UniProt P25440); assay: Verification of BET-DCAF16 interaction, comparative test with known compounds (Test Example 8); type: cell-based; details: test compound 1.0 μmol/L; HEK293 cells expressing Nluc-BRD2 and DCAF16-HaloTag; MLN4924 instead of bortezomib; substrate diluted 200-fold
T1 construct: expressed in transfected cells; host or cells: HEK293
Method: Cultured HEK293 cells were washed with DPBS, no calcium, no magnesium (DPBS: Code No. 14190144, Thermo Fisher Scientific) and harvested using TrypLE™ Express Enzyme (1×), phenol red (TrypLE: Code No. 12605036, Thermo Fisher Scientific), and prepared to be 4.0×10^5 cells/mL in DMEM. A volume of 12 mL of the cell suspension was seeded in a Falcon® 100 mm×20 mm cell culture dish and cultured in a carbon dioxide gas incubator at 37° C. for 6 hours. For one dish, 12 μg of pFC27K_DCAF16, 0.12 μg of p FN31A_BRD2, 48 μL of FuGENE® HD Transfection Reagent (Code No. E2312, Promega) were added to 600 μL of Opti-MEM™ I Reduced Serum Medium, no phenol red (Opti-MEM: Code No. 11058021, Thermo Fisher Scientific) and mixed. The mixture was allowed to stand for 15 minutes and added to HEK293 cells. After 20 hours, the cells were washed with DPBS, no calcium, no magnesium, harvested from the dish using TrypLE, and then neutralized in DMEM. After centrifugation, the supernatant was discarded, and the cells were prepared to be 2.2×10^5 cells/mL using Opti-MEM containing 4% FBS. HaloTag® NanoBRET™ 618 Ligand contained in NanoBRET™ Nano-Glo® Detection System (Code No. N1662, Promega) and bortezomib as a proteasome inhibitor were added to be a 1000-fold dilution. In addition, a group was prepared to which DMSO was added instead of HaloTag® NanoBRET™ 618 Ligand. 90 μL of the cell suspension was seeded in CulturPlate-96 (Code No. 6005688, PerkinElmer), and allowed to stand in a carbon dioxide gas incubator at 37° C. for 30 minutes. A volume of 10 mmol/L of a solution of the test compound in DMSO was adjusted to be 100 μmol/L with Opti-MEM, 10 μL of the solution was added to each well, and then the mixture was allowed to stand in a carbon dioxide gas incubator at 37° C. for 2 hours. At this time, all the groups were prepared so that the final concentration of DMSO was 0.1 vol % including the group to which the test compound was not added. NanoBRET™ Nano-Glo® Substrate included in the NanoBRET™ Nano-Glo® Detection System was diluted 100-fold with Opti-MEM. After adding 25 μL of the dilution each and stirring for 30 seconds, measurement was performed with an Emission Filter of 460 nm and 620 nm using EnVision (PerkinElmer). The BRET ratio of 10 μmol/L for each test compound was calculated using the following formula. The experiment was performed by n=3 and the average value was calculated.
BRET ratio={(A/B)−(C/D)}×1000 • A: value at 620 nm filter of the well with addition of test compound and 618 Ligand • B: value at 460 nm filter of the well with addition of test compound and 618 Ligand • C: value at 620 nm filter of the well without addition of test compound or 618 Ligand • D: value at 460 nm filter of the well without addition of test compound or 618 Ligand
For comparison with the known comparative compound 1, the enhancement of the BET-DCAF16 interaction was verified by the same method as in test example 7. However, for the purpose of system optimization, bortezomib was changed to Neddylation inhibitor MLN4924 (Code No. HY-10484, MedChem Express), and the dilution ratio of NanoBRET™ Nano-Glo® Substrate was set to 200-fold. The BRET ratio of 1.0 μmol/L of each test compound was calculated, and the results are shown as in Table 23 below.

T1 sequence (P25440 whole entry): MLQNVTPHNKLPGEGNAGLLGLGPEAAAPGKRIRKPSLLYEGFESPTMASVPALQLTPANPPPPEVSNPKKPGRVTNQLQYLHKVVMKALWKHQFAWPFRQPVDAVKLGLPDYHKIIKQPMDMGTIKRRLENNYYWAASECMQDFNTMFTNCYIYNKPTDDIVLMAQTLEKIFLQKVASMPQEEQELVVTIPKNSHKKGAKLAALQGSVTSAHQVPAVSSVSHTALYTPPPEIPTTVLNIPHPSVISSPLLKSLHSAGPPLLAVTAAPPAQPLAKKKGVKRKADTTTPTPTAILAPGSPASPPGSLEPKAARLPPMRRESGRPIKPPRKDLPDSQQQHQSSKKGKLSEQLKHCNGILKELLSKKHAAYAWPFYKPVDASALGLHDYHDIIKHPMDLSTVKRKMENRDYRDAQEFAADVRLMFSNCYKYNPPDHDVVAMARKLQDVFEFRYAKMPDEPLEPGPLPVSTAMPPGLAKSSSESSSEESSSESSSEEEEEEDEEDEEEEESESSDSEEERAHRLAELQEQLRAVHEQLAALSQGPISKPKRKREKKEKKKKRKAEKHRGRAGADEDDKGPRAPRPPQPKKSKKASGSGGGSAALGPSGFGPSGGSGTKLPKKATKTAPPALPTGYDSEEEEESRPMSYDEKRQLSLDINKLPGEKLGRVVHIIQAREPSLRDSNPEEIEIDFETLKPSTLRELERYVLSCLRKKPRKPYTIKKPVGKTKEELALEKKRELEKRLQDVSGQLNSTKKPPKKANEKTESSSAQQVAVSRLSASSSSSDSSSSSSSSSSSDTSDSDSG
T1 sequence (Q9NXF7 whole entry partner): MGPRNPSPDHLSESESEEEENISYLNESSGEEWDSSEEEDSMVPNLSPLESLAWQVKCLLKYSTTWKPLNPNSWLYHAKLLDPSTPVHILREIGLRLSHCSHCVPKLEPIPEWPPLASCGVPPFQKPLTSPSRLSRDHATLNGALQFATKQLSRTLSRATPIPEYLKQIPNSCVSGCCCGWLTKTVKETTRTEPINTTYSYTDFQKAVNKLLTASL

Compared with `CCC(=O)N1c2ccccc2[C@H](Nc2ccc(C(=O)NCCCNC(=O)c3ccc(C4=N[C@@H](CC(=O)OC(C)(C)C)c5nnc(C)n5-c5sc(C)c(C)c54)cc3)cc2)C[C@@H]1C` [Compound 1h, tert-Butyl 2-[(S)-2,3,9-trimethyl-4-(4-{[3-(4-{[(2S,4R)-2-methyl-1-propionyl-1,2,3,4-tetrahydroquinolin-4-yl]amino}benzamide)propyl]carbamoyl}phenyl)-6H-thieno[3,2-f][1,2,4]triazolo[4,3-a][1,4]diazepin-6-yl]acetate], `CCC(=O)N1c2ccccc2[C@H](Nc2ccc(C(=O)NCC(=O)CNC(=O)c3ccc(N[C@@H]4C[C@H](C)N(C(=O)CC)c5ccccc54)cc3)cc2)C[C@@H]1C` [Compound 1l, N,N′-(2-Oxopropane-1,3-diyl)bis(4-{[(2S,4R)-2-methyl-1-propionyl-1,2,3,4-tetrahydroquinolin-4-yl]amino}benzamide)] is higher in “BRET Ratio” value: 10.95 for the first, 14.93 for the second.

Compared with `CCC(=O)N1c2ccccc2[C@H](Nc2ccc(C(=O)NCc3cn(-c4ccc(N[C@@H]5C[C@H](C)N(C(=O)CC)c6ccccc65)cc4)nn3)cc2)C[C@@H]1C` [Compound 3a, 4-{[(2S,4R)-2-Methyl-1-propionyl-1,2,3,4-tetrahydroquinolin-4-yl]amino}-N-{[1-(4-{[(2S,4R)-2-methyl-1-propionyl-1,2,3,4-tetrahydroquinolin-4-yl]amino}phenyl)-1H-1,2,3-triazol-4-yl]methyl}benzamide], `CCC(=O)N1c2ccccc2[C@H](Nc2ccc(C(=O)N3CCn4c(-c5ccc(N[C@@H]6C[C@H](C)N(C(=O)CC)c7ccccc76)cc5)cnc4C3)cc2)C[C@@H]1C` [Compound 3e, 1-[(2S,4R)-2-Methyl-4-({4-[3-(4-{[(2S,4R)-2-methyl-1-propionyl-1,2,3,4-tetrahydroquinolin-4-yl]amino}phenyl)-5,6,7,8-tetrahydroimidazo[1,2-a]pyrazine-7-carbonyl]phenyl}amino)-3,4-dihydroquinolin-1(2H)-yl]propan-1-one] is lower in “BRET Ratio” value: 14.46 for the first, 9.58 for the second.

First: Cc1sc2c(c1C)C(c1ccc(C(=O)NCc3cn(-c4ccc(C5=N[C@@H](CC(=O)OC(C)(C)C)c6nnc(C)n6-c6sc(C)c(C)c65)cc4)nn3)cc1)=N[C@@H](CC(=O)OC(C)(C)C)c1nnc(C)n1-2 [Compound 3b, tert-Butyl 2-[(S)-4-(4-{4-[(4-{(S)-6-[2-(tert-butoxy)-2-oxoethyl]-2,3,9-trimethyl-6H-thieno[3,2-f][1,2,4]triazolo[4,3-a][1,4]diazepin-4-yl}benzamide)methyl]-1H-1,2,3-triazol-1-yl}phenyl)-2,3,9-trimethyl-6H-thieno[3,2-f][1,2,4]triazolo[4,3-a][1,4]diazepin-6-yl]acetate]
Second: CCNC(=O)C[C@@H]1N=C(c2ccc(SCCCCSc3ccc(C4=N[C@@H](CC(=O)NCC)c5nnc(C)n5-c5ccc(OC)cc54)cc3)cc2)c2cc(OC)ccc2-n2c(C)nnc21 [compound 1, 2,2′-((4S,4'S)-6,6′-((butane-1,4-diylbis(sulfanediyl))bis(4,1-phenylene))bis(8-methoxy-1-methyl-4H-benzo[f][1,2,4]triazolo[4,3-a][1,4]diazepine-6,4-diyl))bis(N-ethylacetamide), reference compound]
The “BRET Ratio” value of the first is higher: 9.69 for the first, 1.93 for the second.

Going from `CCC(=O)N1c2ccccc2[C@H](Nc2ccc(NC(=O)CCCC(=O)Nc3ccc(N[C@@H]4C[C@H](C)N(C(=O)CC)c5ccccc54)cc3)cc2)C[C@@H]1C` [Compound 6k, N^1,N^5-Bis(4-(((2S,4R)-2-methyl-1-propionyl-1,2,3,4-tetrahydroquinolin-4-yl)amino)phenyl)glutaramide] to `CCC(=O)N1c2ccccc2[C@H](Nc2ccc(NC(=O)CCCC(=O)NC3CCC(N[C@@H]4C[C@H](C)N(C(=O)CC)c5ccccc54)CC3)cc2)C[C@@H]1C` (stereo partly drawn) [Compound 7o, N^1-((1R,4r)-4-(((2S,4R)-2-Methyl-1-propionyl-1,2,3,4-tetrahydroquinolin-4-yl)amino)cyclohexyl)-N^5-(4-(((2S,4R)-2-methyl-1-propionyl-1,2,3,4-tetrahydroquinolin-4-yl)amino)phenyl)glutaramide], the “BRET Ratio” value rises from 12.62 to 13.00.

First: CCC(=O)N1c2ccccc2[C@H](Nc2ccc(NC(=O)N3CCN(C(=O)C4CCC(N[C@@H]5C[C@H](C)N(C(=O)CC)c6ccccc65)CC4)CC3)cc2)C[C@@H]1C (stereo partly drawn) [Compound 7p, 4-((1R,4r)-4-(((2S,4R)-2-Methyl-1-propionyl-1,2,3,4-tetrahydroquinolin-4-yl)amino)cyclohexane-1-carbonyl)-N-(4-(((2S,4R)-2-methyl-1-propionyl-1,2,3,4-tetrahydroquinolin-4-yl)amino)phenyl)piperazine-1-carboxamide]
Second: CCC(=O)N1c2ccccc2[C@H](Nc2ccc(NC(=O)CNC(=O)N[C@H]3CC[C@H](N[C@@H]4C[C@H](C)N(C(=O)CC)c5ccccc54)CC3)cc2)C[C@@H]1C [Compound 8j, 2-(3-((1R,4R)-4-(((2S,4R)-2-Methyl-1-propionyl-1,2,3,4-tetrahydroquinolin-4-yl)amino)cyclohexyl)ureido)-N-(4-(((2S,4R)-2-methyl-1-propionyl-1,2,3,4-tetrahydroquinolin-4-yl)amino)phenyl)acetamide]
The “BRET Ratio” value of the first is lower: 11.57 for the first, 11.91 for the second.

First: CCC(=O)N1c2ccccc2[C@H](Nc2ccc(-n3cc(CCNC(=O)[C@H]4CC[C@H](N[C@@H]5C[C@H](C)N(C(=O)CC)c6ccccc65)CC4)nn3)cc2)C[C@@H]1C [Compound 8a, (1R,4r)-4-(((2S,4R)-2-Methyl-1-propionyl-1,2,3,4-tetrahydroquinolin-4-yl)amino)-N-(2-(1-(4-(((2S,4R)-2-methyl-1-propionyl-1,2,3,4-tetrahydroquinolin-4-yl)amino)phenyl)-1H-1,2,3-triazol-4-yl)ethyl)cyclohexane-1-carboxamide]
Second: CCC(=O)N1c2ccccc2[C@H](Nc2ccc(-n3cc(CNC(=O)c4ccc(Cn5c(CC)cc6c5CCCC6=O)cc4)nn3)cc2)C[C@@H]1C [Compound 15f, 4-((2-Ethyl-4-oxo-4,5,6,7-tetrahydro-1H-indol-1-yl)methyl)-N-((1-(4-(((2S,4R)-2-methyl-1-propionyl-1,2,3,4-tetrahydroquinolin-4-yl)amino)phenyl)-1H-1,2,3-triazol-4-yl)methyl)benzamide]
The “BRET Ratio” value of the first is higher: 12.45 for the first, 12.43 for the second.

Compared with `CCC(=O)N1c2ccccc2[C@H](Nc2ccc(NC(=O)CCCC(=O)NC3CCN(Cc4cc(O)cc(-c5c(C)noc5C)c4)CC3)cc2)C[C@@H]1C` [Compound 12c, N^1-(1-(3-(3,5-Dimethylisoxazol-4-yl)-5-hydroxybenzyl)piperidin-4-yl)-N^5-(4-(((2S,4R)-2-methyl-1-propionyl-1,2,3,4-tetrahydroquinolin-4-yl)amino)phenyl)glutaramide], `CCC(=O)N1c2ccccc2[C@H](Nc2ccc(NC(=O)CCCC(=O)Nc3ccc(Cn4c(C(=O)OCCN(C)C)cc5c4CCCC5=O)cc3)cc2)C[C@@H]1C` [Compound 15a, 2-(Dimethylamino)ethyl 1-(4-(5-((4-(((2S,4R)-2-methyl-1-propionyl-1,2,3,4-tetrahydroquinolin-4-yl)amino)phenyl)amino)-5-oxopentanamide)benzyl)-4-oxo-4,5,6,7-tetrahydro-1H-indole-2-carboxylate] is lower in “BRET Ratio” value: 13.16 for the first, 9.59 for the second.
